EP0420266A2, “Chromene or thiochromene derivatives, process for preparing the same, intermediate therefor, pharmaceutical compositions containing said derivatives and the use of said derivatives” (TANABE SEIYAKU CO., LTD., priority 1989, dated 1991)

Target: T1, HMG-CoA reductase (HMGR) (Rattus norvegicus, UniProt P51639)
T1 construct: Microsomes prepared from liver of rats administered with cholestyramine; from tissue
T1 sequence (P51639 1-887): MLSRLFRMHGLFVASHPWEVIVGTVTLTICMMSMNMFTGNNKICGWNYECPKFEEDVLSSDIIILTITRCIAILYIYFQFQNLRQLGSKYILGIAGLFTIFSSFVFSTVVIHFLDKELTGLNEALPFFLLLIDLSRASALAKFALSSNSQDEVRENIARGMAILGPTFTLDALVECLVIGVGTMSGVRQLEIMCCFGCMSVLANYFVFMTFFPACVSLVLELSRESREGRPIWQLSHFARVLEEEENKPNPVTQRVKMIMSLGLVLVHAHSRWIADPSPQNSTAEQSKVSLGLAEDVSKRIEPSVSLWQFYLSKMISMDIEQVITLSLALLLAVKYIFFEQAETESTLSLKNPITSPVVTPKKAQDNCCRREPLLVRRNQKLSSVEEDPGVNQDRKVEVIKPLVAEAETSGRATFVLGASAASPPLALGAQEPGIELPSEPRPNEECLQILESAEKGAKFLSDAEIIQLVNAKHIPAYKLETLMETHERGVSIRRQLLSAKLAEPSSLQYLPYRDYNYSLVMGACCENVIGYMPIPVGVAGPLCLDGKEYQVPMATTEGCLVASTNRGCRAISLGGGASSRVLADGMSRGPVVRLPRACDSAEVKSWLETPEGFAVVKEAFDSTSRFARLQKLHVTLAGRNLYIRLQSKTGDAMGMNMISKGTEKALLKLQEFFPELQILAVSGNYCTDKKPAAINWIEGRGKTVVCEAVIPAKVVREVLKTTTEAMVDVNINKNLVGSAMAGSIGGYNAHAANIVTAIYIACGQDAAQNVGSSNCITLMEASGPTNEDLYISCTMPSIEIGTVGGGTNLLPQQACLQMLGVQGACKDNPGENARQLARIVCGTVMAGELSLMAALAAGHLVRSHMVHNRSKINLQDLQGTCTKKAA
Experiment: Inhibitory activity against rat hepatic microsomal HMG-CoA reductase (HMGR)
Format: biochemical
Settings: rat liver microsomes, ¹⁴C-HMG-CoA substrate, 10 minutes incubation
Procedure: Experiment [Inhibitory Activity against Rat Hepatic Microsomal HMG-CoA reductase (HMGR)]
HMGR activities of microsomes were measured in accordance with the method of N. L. Young et al., Methods in Enzymology, 71, 498 (1981).
Microsomes prepared from liver of rats administered with cholestyramine were mixed with a solution of the compounds to be tested in dimethyl sulfoxide and ¹⁴C-HMG-CoA (substrate). After the mixture was incubated for 10 minutes, the reaction was quenched with 6N hydrochloric acid and the mixture was allowed to stand at 37°C for 15 minutes, followed by centrifugation. The supernatant was spotted on thin layer chromatography (TLC; Kieselgel 60F254 manufactured by Merck) and developed with toluene/acetone (1:1). The spot of ¹⁴C-mevalonolactone was collected and the amount of isotope was measured with a scintillation counter (Type 4640 TRI-CARB. manufactured by Paccard) to calculate an amount of the formed mevalonolactone. By comparing amounts of the formed mevalonolactone in the group treated with test compounds and the control group (without test compounds), HMGR activity inhibition rates of the test compounds were calculated.

Row | HMGR Inhibition (%) (Conc. of Compounds 10⁻⁶ M) | HMGR Inhibition (%) (Conc. of Compounds 10⁻⁷ M) | SMILES
1 | 90 | 45 | CCC1(CC)Sc2ccccc2C(c2ccc(F)cc2)=C1/C=C/[C@@H](O)C[C@@H](O)CC(=O)[O-].[Na+] (relative stereo) [C, (+)-(3R*,5S*)-(E)-7-[4-(4-Fluorophenyl)-2,2-diethyl-2H-thiochromen-3-yl]-3,5-dihydroxy-6-heptenoic acid sodium salt]
2 | 84 | 32 | CCC1(CC)Oc2ccccc2C(c2ccc(F)cc2)=C1/C=C/[C@H]1C[C@H](O)CC(=O)O1 (relative stereo) [B, Trans-(E)-6-[2-(4-(4-fluorophenyl)-2,2-diethyl-2H-chromen-3-yl)-1-ethenyl]-3,4,5,6-tetrahydro-4-hydroxy-2H-pyran-2-one]
3 | 100 | 67 | CCC1(CC)Oc2ccccc2C(c2ccc(F)cc2)=C1/C=C/[C@@H](O)C[C@@H](O)CC(=O)[O-].[Na+] (relative stereo) [A, (3R*,5S*)-(E)-7-[4-(4-Fluorophenyl)-2,2-diethyl-2H-chromen-3-yl]-3,5-dihydroxy-6-heptenoic acid sodium salt]
